Results taken from patent US9726659B2, “CMPF as a biomarker for diabetes and associated methods” (The Governing Council of the University of Toronto, priority 2012, dated 2017).

What was measured:
[1] = test system: mice; test: Hyperinsulinemic euglycemic clamps after 7 days of IP injections; format: in vivo; conditions: 7 days IP
Protocol: A) Schematic illustrating injection and surgical timeline. B) Glucose infusion rate (C) glucose appearance and (D) disappearance rates and (E) glycolytic rate in 7 day CMPF-injected mice compared to vehicle controls (N=4/group). […] Values mean±SEM.
Hyperinsulinemic euglycemic clamps were performed as previously described (Liu et al., 2012) following 7 days of IP injections with either CMPF or vehicle. Internal and external cannulation was performed on day 3 of the injection protocol.
As shown in Example 1, elevated plasma CMPF results in glucose intolerance and impaired insulin secretion. […] To more thoroughly examine integrated glucose homeostasis, hyperinsulinemic euglycemic clamps were performed.

[2] = test system: dispersed mouse islets; test: Mitochondrial membrane potential (rhodamine 123); format: cell-based; conditions: 200 μM
Protocol: Dispersed isolated islets were treated with either vehicle control or 200 μM CMPF for 24 hours prior to loading with rhodamine 123 (25 ug/ml, 10 min) in 2.8 mM glucose imaging buffer. 5 mM NaN3 was added to fully depolarize the MMP (Diao et al., 2008).
Lower total insulin content may be due to beta-cell exhaustion caused by over-stimulation and/or defective insulin production. To determine the mechanism through which CMPF diminishes insulin content, we measured insulin in the media following 24 hr treatment. […] Impaired insulin processing has previously been associated with elevated levels of the mitochondrial protein uncoupling protein 2 (UCP2) (Kashemsant and Chan, 2006). Excess substrate for the electron transport chain leads to the formation of ROS, which can induce UCP2 expression. To first determine if CMPF is metabolized by beta-cells, we measured changes in mitochondrial membrane potential (MMP) in mouse islets acutely treated with CMPF. […] This corresponded to a 2-fold increase in ROS in CMPF-treated islets over controls after 4 and 24 hrs of treatment (FIG. 17c). […] The increase in ROS production caused by CMPF-treatment was inhibited by co-treatment with the antioxidant N-Acetyl-Cysteine (NAC) (FIG. 17f). Importantly, co-treatment with NAC rescued insulin secretion and insulin content to near control levels in CMPF-treated islets (FIG. 17g,h). Therefore, oxidative stress caused by CMPF metabolism impaired GSIS and insulin processing, and is reversible through reducing ROS generation.
Given that CMPF causes hyperinsulinemia during the fed-state in vivo, and exaggerated secretion of insulin from islets under non-stimulatory conditions in vitro, we rationalized that there must be a defect in glucose-sensing and/or secretion of insulin that could not be solely explained by effects on insulin production. […] To confirm changes in mitochondrial function, 24 hr CMPF treated islets were analyzed by microarray. […] When organized based on biological process, the largest differentially expressed cluster encompassed genes involved in metabolism (38%) (FIG. 17c). […]

[3] = test system: MIN6; test: Total insulin content in MIN6 cells; format: cell-based, murine; conditions: 200 uM, 4 hrs, vs vehicle
Protocol: In the absence of apoptosis and necrosis, CMPF must be impairing GSIS by causing beta cell dysfunction. First, the effect of CMPF treatment on insulin biosynthesis was investigated to determine if insulin is available to be released upon stimulation. MIN6, murine and human islets were treated with vehicle control, 20 uM and 200 uM CMPF for 4 hrs (MIN6) or 24 hrs (islets), and total insulin content measured. […] Lower total insulin content may be due to either defective insulin processing from proinsulin to mature insulin, or insufficient insulin transcription. To determine the mechanism through which CMPF is reducing total insulin content, quantitative PCR (qPCR) was performed on RNA that was isolated from murine islets treated with either vehicle control or 200 uM CMPF for 24 hrs.

[4] = test system: mouse islets; test: Microarray analysis of 24 hr treated islets; format: cell-based; conditions: 24 hr treatment
Protocol: A) Expression of insulin, insulin processing enzymes, insulin transcription factors and glucose-sensing genes in 24-hour treated islets (N=5-6/group). B) MMP following 24-hour incubation with control or 200 μM CMPF, and change in fluorescence (N=4/group). […] Values are mean+/−SEM. Student's t-test (a,c), one-way ANOVA (b). *P<0.05, **P<0.01
Total RNA was extracted from 24 hour vehicle or CMPF-treated islets using the Qiagen RNeasy Plus mini kit (Hilden, Germany). Microarray analysis was performed as previously described (Basford et al. 2012) using the Affymetrix Mouse 430 2.0 Gene Chip at the University Health Network microarray center (Toronto, Canada). Significant changes were defined as P<0.05. Microarray data will be available on the NCBI GEO database at the time of publication. Human islet microarray data can be found at GE040709. Reverse transcription from total RNA and quantitative real time PCR (qPCR) analysis was performed as previously described (Basford et al. 2012). Primers were designed using Primer3 software (NCBI). Data were normalized to beta actin mRNA.
Given that CMPF causes hyperinsulinemia during the fed-state in vivo, and exaggerated secretion of insulin from islets under non-stimulatory conditions in vitro, we rationalized that there must be a defect in glucose-sensing and/or secretion of insulin that could not be solely explained by effects on insulin production. […] To confirm changes in mitochondrial function, 24 hr CMPF treated islets were analyzed by microarray. […] When organized based on biological process, the largest differentially expressed cluster encompassed genes involved in metabolism (38%) (FIG. 17c). […] Such a switch can decrease the beta-cell's ability to sense and metabolize glucose, limiting their capacity for GSIS thus may explain CMPF's effect on beta-cells (Hue et al., 2009).

[5] = test system: mouse islets; test: Western blotting of treated mouse islets; format: cell-based
Protocol: CMPF-treated and control mouse islets were lysed in RIPA buffer (Cell Signaling, Danvers, Mass., USA) containing protease inhibitor cocktail (Roche, Mississauga, ON, Canada). Lysates were spun at 12,000 rpm and supernatant was loaded onto a 4-15% SDS-PAGE gradient gel (BioRad, Mississauga, ON, Canada) and transferred onto PVDF membrane using a Turbo Blotter (BioRad). The membrane was probed with the corresponding antibodies, and imaged using Kodak Imager 4000pro (Carestream, Rochester, N.Y., USA).
To determine the mechanism through which CMPF decreases insulin biosynthesis we examined its effect on these key regulators. Under normal conditions, AKT and GSK3β have reciprocal activities. Active pAKT phosphorylates and inactivates GSK3β, preventing phosphorylation of downstream targets (Humphrey et al., 2010). […] FOXO1 is normally sequestered in the cytosol due to phosphorylation by AKT (Kitamura et al., 2005). […] Altered activity of these transcription factors is further confirmed by decreased mRNA levels of key target genes including Inst, transcription factors Pdx1 and Mafa, proinsulin processing enzymes CpE, Pc1 and Pc2, and the glucose transporter Glut2 (Boucher et al., 2006; Kaneto et al. 2008) (FIG. 18a).

CCCc1oc(CCC(=O)O)c(C(=O)O)c1C [CMPF, 3-carboxy-4-methyl-5-propyl-2-furanpropanoic acid]
glucose appearance, basal [1]: significantly lower | glycolytic rate, response to insulin (post clamp/basal) [1]: no difference | insulin appearance post-clamp [1]: significantly reduced | glucose infusion rate ([1]; N=4/group): significant reduction | MMP hyperpolarization under high glucose ([2]; 24 hrs): significantly reduced MMP hyperpolarization | MMP hyperpolarization under sub-stimulatory glucose ([2]; 24 hrs): significantly greater hyperpolarization | mitochondrial membrane potential, acute addition ([2]; acute): transient membrane hyperpolarization | total insulin content [3]: significantly reduced | genes related to fat oxidation [4]: significant upregulation | share of differentially expressed genes in the metabolism cluster [4]: 38% | transcripts significantly differentially expressed [4]: 6.2% | AKT (Ser473) phosphorylation ([5]; 24 hr treatment): significantly impaired | GSK3β (Ser9) phosphorylation ([5]; 24 hr treatment): significantly impaired | absolute protein levels of PDX1 and FOXO1 ([5]; CMPF-treated islets): not significantly different
